What was measured:
Format in all cases: functional, cell-based
HL-60 = assay: Cytotoxicity against human HL60 cells after 48 hrs by MTT assay; conditions: HL-60, 48 h
A549 = assay: Cytotoxicity against human A549 cells after 48 hrs by MTT assay; conditions: A549, 48 h
MCF7 = assay: Cytotoxicity against human MCF7 cells after 48 hrs by MTT assay; conditions: MCF7, 48 h
Daudi = assay: Cytotoxicity against human Daudi cells after 48 hrs by MTT assay
HepG2 = assay: Cytotoxicity against human HepG2 cells after 48 hrs by MTT assay; conditions: HepG2, 48 h
A-375 = assay: Cytotoxicity against human A375 cells after 48 hrs by MTT assay; conditions: A-375, 48 h
Caco-2 = assay: Cytotoxicity against human CaCo2 cells after 48 hrs by MTT assay; conditions: Caco-2, 48 h
HCT-15 = assay: Cytotoxicity against human HCT15 cells after 48 hrs by MTT assay; conditions: HCT-15, 48 h
HeLa = assay: Cytotoxicity against human HeLa cells after 48 hrs by MTT assay
LoVo [1] = assay: Cytotoxicity against human LoVo cells after 48 hrs by MTT assay
LoVo [2] = assay: Cytotoxicity against human multidrug resistant LoVo cells after 48 hrs by MTT assay

| Structure (SMILES) | IC50 (HL-60) | IC50 (A549) | IC50 (MCF7) | IC50 (Daudi) | IC50 (HepG2) | IC50 (A-375) | IC50 (Caco-2) | IC50 (HCT-15) | IC50 (HeLa) | IC50 (LoVo [1]) | IC50 (LoVo [2]) |
| --- | --- | --- | --- | --- | --- | --- | --- | --- | --- | --- | --- |
| OCP(CO)CCP(CO)CO | 83.7 µM | > 100 µM | > 100 µM | > 100 µM | 71.7 µM | 73.2 µM | 84.1 µM | 91.7 µM | > 100 µM |  |  |
| COc1cccc2c1C(=O)c1c(O)c3c(c(O)c1C2=O)C[C@@](O)(C(=O)CO)C[C@@H]3O[C@H]1C[C@H](N)[C@H](O)[C@H](C)O1 [DOXORUBICIN] |  |  |  |  |  |  |  |  |  | 1.46 µM | 44.9 µM |
| OCP(CO)CO [TRIS(HYDROXYMETHYL)PHOSPHINE] | 68.6 µM | 72.9 µM | 64.2 µM | > 100 µM | 98.7 µM | 88.7 µM | > 100 µM | > 100 µM | > 100 µM |  |  |

From ChEMBL document CHEMBL1142317, “In vitro antitumor activity of the water soluble copper(I) complexes bearing the tris(hydroxymethyl)phosphine ligand” (J Med Chem, 2008)
